# Legend:
# Format in all cases: functional
# [1] = test system: SK-OV-3; test: Growth inhibition of human SKOV3 cells by sulforhodamine B assay
# [2] = test system: SF-268; test: Growth inhibition of human SF268 cells assessed as cell growth at 10^-6 M by sulforhodamine B assay; settings: read-out: Activity
# [3] = test system: HL-60(TB); test: Growth inhibition of human HL-60(TB) cells assessed as cell growth at 10^-4 M by sulforhodamine B assay; settings: read-out: Activity
# [4] = test system: OVCAR-5; test: Growth inhibition of human OVCAR5 cells by sulforhodamine B assay
# [5] = test system: SK-MEL-28; test: Growth inhibition of human SK-MEL-28 cells assessed as cell growth at 10^-8 M by sulforhodamine B assay; settings: read-out: Activity
# [6] = Growth inhibition of human NCI-ADR-RES cells assessed as cell growth at 10^-7 M by sulforhodamine B assay; settings: read-out: Activity
# [7] = test system: KM12; test: Growth inhibition of human KM12 cells assessed as cell growth at 10^-4 M by sulforhodamine B assay; settings: read-out: Activity
# [8] = test system: RPMI-8226; test: Growth inhibition of human RPMI8226 cells assessed as cell growth at 10^-7 M by sulforhodamine B assay; settings: read-out: Activity
# [9] = test system: SK-MEL-2; test: Growth inhibition of human SK-MEL-2 cells assessed as cell growth at 10^-8 M by sulforhodamine B assay; settings: read-out: Activity
# [10] = test system: RPMI-8226; test: Growth inhibition of human RPMI8226 cells assessed as cell growth at 10^-8 M by sulforhodamine B assay; settings: read-out: Activity
# [11] = test system: NCI-H460; test: Growth inhibition of human NCI-H460 cells assessed as cell growth at 10^-7 M by sulforhodamine B assay; settings: read-out: Activity
# [12] = test system: HL-60(TB); test: Growth inhibition of human HL-60(TB) cells assessed as cell growth at 10^-8 M by sulforhodamine B assay; settings: read-out: Activity
# [13] = test system: UACC-62; test: Growth inhibition of human UACC62 cells assessed as cell growth at 10^-7 M by sulforhodamine B assay; settings: read-out: Activity
# [14] = test system: MDA-MB-435; test: Growth inhibition of human MDA-MB-435 cells assessed as cell growth at 10^-7 M by sulforhodamine B assay; settings: read-out: Activity
# [15] = test system: DU-145; test: Growth inhibition of human DU145 cells assessed as cell growth at 10^-8 M by sulforhodamine B assay; settings: read-out: Activity
# [16] = test system: M14; test: Growth inhibition of human M14 cells assessed as cell growth at 10^-8 M by sulforhodamine B assay; settings: read-out: Activity
# [17] = test system: HL-60(TB); test: Growth inhibition of human HL-60(TB) cells by sulforhodamine B assay
# [18] = test system: KM12; test: Growth inhibition of human KM12 cells by sulforhodamine B assay
# [19] = test system: NCI-H23; test: Growth inhibition of human NCI-H23 cells assessed as cell growth at 10^-6 M by sulforhodamine B assay; settings: read-out: Activity
# [20] = test system: IGROV-1; test: Growth inhibition of human IGROV1 cells assessed as cell growth at 10^-8 M by sulforhodamine B assay; settings: read-out: Activity
# [21] = test system: SF-295; test: Growth inhibition of human SF295 cells assessed as cell growth at 10^-4 M by sulforhodamine B assay; settings: read-out: Activity
# [22] = test system: SW-620; test: Growth inhibition of human SW620 cells assessed as cell growth at 10^-8 M by sulforhodamine B assay; settings: read-out: Activity
# [23] = test system: SF-268; test: Growth inhibition of human SF268 cells assessed as cell growth at 10^-8 M by sulforhodamine B assay; settings: read-out: Activity
# [24] = test system: MOLT-4; test: Growth inhibition of human MOLT4 cells by sulforhodamine B assay
# [25] = test system: RXF 393; test: Growth inhibition of human RXF393 cells assessed as cell growth at 10^-4 M by sulforhodamine B assay; settings: read-out: Activity
# [26] = test system: OVCAR-8; test: Growth inhibition of human OVCAR8 cells by sulforhodamine B assay
# [27] = test system: SK-MEL-28; test: Growth inhibition of human SK-MEL-28 cells assessed as cell growth at 10^-6 M by sulforhodamine B assay; settings: read-out: Activity
# [28] = test system: SN12C; test: Growth inhibition of human SN12C cells assessed as cell growth at 10^-6 M by sulforhodamine B assay; settings: read-out: Activity
# [29] = test system: MOLT-4; test: Growth inhibition of human MOLT4 cells assessed as cell growth at 10^-8 M by sulforhodamine B assay; settings: read-out: Activity
# [30] = test system: NCI-H460; test: Growth inhibition of human NCI-H460 cells assessed as cell growth at 10^-4 M by sulforhodamine B assay; settings: read-out: Activity
# [31] = test system: HOP-62; test: Growth inhibition of human HOP62 cells assessed as cell growth at 10^-6 M by sulforhodamine B assay; settings: read-out: Activity
# [32] = test system: SW-620; test: Growth inhibition of human SW620 cells assessed as cell growth at 10^-4 M by sulforhodamine B assay; settings: read-out: Activity
# [33] = test system: LOX IMVI; test: Growth inhibition of human LOXIMVI cells assessed as cell growth at 10^-6 M by sulforhodamine B assay; settings: read-out: Activity
# [34] = Growth inhibition of human HCC2998 cells by sulforhodamine B assay
# [35] = test system: DU-145; test: Growth inhibition of human DU145 cells assessed as cell growth at 10^-7 M by sulforhodamine B assay; settings: read-out: Activity
# [36] = test system: T47D; test: Growth inhibition of human T47D cells assessed as cell growth at 10^-8 M by sulforhodamine B assay; settings: read-out: Activity
# [37] = test system: RPMI-8226; test: Growth inhibition of human RPMI8226 cells by sulforhodamine B assay
# [38] = test system: A549; test: Growth inhibition of human A549/ATCC cells assessed as cell growth at 10^-4 M by sulforhodamine B assay; settings: read-out: Activity
# [39] = test system: OVCAR-4; test: Growth inhibition of human OVCAR4 cells assessed as cell growth at 10^-8 M by sulforhodamine B assay; settings: read-out: Activity
# [40] = test system: SN12C; test: Growth inhibition of human SN12C cells assessed as cell growth at 10^-4 M by sulforhodamine B assay; settings: read-out: Activity
# [41] = read-out: LC50 (the source's name)
# [42] = read-out: pLC50 (the source's name) (converted)
structure (smiles),measurement,setting,value
CC1(C)C[C@@H](O)[C@]2(C(=O)O)CC[C@]3(C)C(=CC[C@@H]4[C@@]5(C)C/C(=C\C=C\c6ccccc6)C(=O)C(C)(C)[C@@H]5CC[C@]43C)[C@@H]2C1,GI50,[1]; read-out: GI50,3.81 µM
same,CC50,[1]; [41],46.4 µM
same,TGI,[1]; read-out: TGI,14.8 µM
same,GI50,[1]; read-out: pGI50 (converted),3.8 µM
same,CC50,[1]; [42],46.8 µM
same,TGI,[1]; read-out: pTGI (converted),14.8 µM
same,growth at 1 µM,[2],90%
same,growth at 100 µM,[3],-40%
same,GI50,[4]; read-out: GI50,2.97 µM
same,CC50,[4]; [41],33.6 µM
same,TGI,[4]; read-out: TGI,10.5 µM
same,GI50,[4]; read-out: pGI50 (converted),2.95 µM
same,CC50,[4]; [42],33.9 µM
same,TGI,[4]; read-out: pTGI (converted),10.5 µM
same,growth at 0.01 µM,[5],99%
same,growth at 0.1 µM,[6],108%
same,growth at 100 µM,[7],-76%
same,growth at 0.1 µM,[8],99%
same,growth at 0.01 µM,[9],86%
same,growth at 0.01 µM,[10],98%
same,growth at 0.1 µM,[11],101%
same,growth at 0.01 µM,[12],101%
same,growth at 0.1 µM,[13],93%
same,growth at 0.1 µM,[14],96%
same,growth at 0.01 µM,[15],106%
same,growth at 0.01 µM,[16],97%
same,GI50,[17]; read-out: GI50,2.92 µM
same,CC50,[17]; [41],> 100 µM
same,TGI,[17]; read-out: TGI,6.89 µM
same,GI50,[17]; read-out: pGI50 (converted),2.88 µM
same,CC50,[17]; [42],> 100 µM
same,TGI,[17]; read-out: pTGI (converted),6.92 µM
same,GI50,[18]; read-out: GI50,3.01 µM
same,LC50 (50% net cell kill),[18]; read-out: LC50,47.2 µM
same,TGI,[18]; read-out: TGI,11.2 µM
same,GI50,[18]; read-out: pGI50 (converted),3.02 µM
same,LC50 (50% net cell kill),[18]; read-out: pLC50 (converted),46.8 µM
same,TGI,[18]; read-out: pTGI (converted),11.2 µM
same,growth at 1 µM,[19],95%
same,growth at 0.01 µM,[20],107%
same,growth at 100 µM,[21],-66%
same,growth at 0.01 µM,[22],99%
same,growth at 0.01 µM,[23],93%
same,GI50,[24]; read-out: GI50,2.48 µM
same,CC50,[24]; [41],> 100 µM
same,TGI,[24]; read-out: TGI,7.84 µM
same,GI50,[24]; read-out: pGI50 (converted),2.45 µM
same,CC50,[24]; [42],> 100 µM
same,TGI,[24]; read-out: pTGI (converted),7.76 µM
same,growth at 100 µM,[25],-92%
same,GI50,[26]; read-out: GI50,3.41 µM
same,CC50,[26]; [41],60.8 µM
same,TGI,[26]; read-out: TGI,14.2 µM
same,GI50,[26]; read-out: pGI50 (converted),3.39 µM
same,CC50,[26]; [42],60.3 µM
same,TGI,[26]; read-out: pTGI (converted),14.1 µM
same,growth at 1 µM,[27],97%
same,growth at 1 µM,[28],91%
same,growth at 0.01 µM,[29],104%
same,growth at 100 µM,[30],-70%
same,growth at 1 µM,[31],97%
same,growth at 100 µM,[32],-57%
same,growth at 1 µM,[33],101%
same,GI50,"[34]; HCC 2998, read-out: GI50",2.95 µM
same,CC50,"[34]; HCC 2998, read-out: LC50 (the source's name)",27.9 µM
same,TGI,"[34]; HCC 2998, read-out: TGI",7.55 µM
same,GI50,"[34]; HCC 2998, read-out: pGI50 (converted)",2.95 µM
same,CC50,"[34]; HCC 2998, read-out: pLC50 (the source's name) (converted)",28.2 µM
same,TGI,"[34]; HCC 2998, read-out: pTGI (converted)",7.59 µM
same,growth at 0.1 µM,[35],104%
same,growth at 0.01 µM,[36],101%
same,GI50,[37]; read-out: GI50,2.58 µM
same,CC50,[37]; [41],> 100 µM
same,TGI,[37]; read-out: TGI,7.96 µM
same,GI50,[37]; read-out: pGI50 (converted),2.57 µM
same,CC50,[37]; [42],> 100 µM
same,TGI,[37]; read-out: pTGI (converted),7.94 µM
same,growth at 100 µM,[38],-63%
same,growth at 0.01 µM,[39],100%
same,growth at 100 µM,[40],-92%

# From ChEMBL document CHEMBL2413072, “Synthesis and in vitro anticancer studies of novel C-2 arylidene congeners of lantadenes” (2013)
